Results published in US10865191B2, “Heterocyclic compounds useful as modulators of TNF alpha” (BRISTOL-MYERS SQUIBB COMPANY, priority 2015, dated 2020).
pIC50: −log10 of the molar value. Like-named read-outs stand apart in the source and are kept apart here.

Target: TNFα (Homo sapiens, UniProt P01375)
Test: TNF induced HEK-Blue assay (NF-kB-driven secreted alkaline phosphatase reporter)
Type: cell-based
Conditions: TNFα 0.5 ng/mL, HEK-Blue-CD40L cells, 18 h
In short: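 HEK-Blue-CD40L cells (NF-kB-driven SEAP reporter), 20,000/well, added after 30 min pre-incubation of compound (0.004–25 μM final) with TNFα 0.5 ng/mL final at 37 °C; 18 h incubation. SEAP read with QUANTI-Blue at 620 nm; IC50 from 4-parameter logistic fit, normalized to unstimulated and stimulated DMSO controls.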

[1] = read-out: TNF induced HEK-Blue assay IC50 value
[2] = TNF induced HEK-Blue assay IC50 value

TNFα, sequence (P01375 77-233 limits assumed): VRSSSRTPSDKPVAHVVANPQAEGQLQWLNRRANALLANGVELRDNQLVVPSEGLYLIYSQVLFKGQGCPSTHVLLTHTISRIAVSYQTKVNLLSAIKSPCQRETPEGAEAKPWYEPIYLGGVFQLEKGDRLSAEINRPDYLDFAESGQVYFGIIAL

Row | Structure (SMILES) | pIC50 [1] | pIC50 [2]
1 | O=C(O)[C@@H]1CN(c2ncc(-c3ccc4ncc(Cl)c(N[C@@H](c5ccccc5F)C(F)F)c4c3)cn2)CCN1 [Example 74, (S)-4-(5-(3-chloro-4-(((S)-2,2-difluoro-1-(2-fluorophenyl)ethyl)amino)quinolin-6-yl)pyrimidin-2-yl)piperazine-2-carboxylic acid] | 5.00 to 6.00 | –
2 | C[C@@H](Nc1c(Cl)cnc2ccc(-c3cnc(N4CCN([C@@H](CNC(=O)OC(C)(C)C)C(=O)O)CC4)nc3)cc12)c1ccccc1F [Example 93, (S)-3-((tert-butoxycarbonyl)amino)-2-(4-(5-(3-chloro-4-(((R)-1-(2-fluorophenyl)ethyl)amino)quinolin-6-yl)pyrimidin-2-yl)piperazin-1-yl)propanoic acid] | 5.00 to 6.00 | –
3 | CCC(Nc1c(Cl)cnc2ccc(-c3cnc(N4CCNC(=O)C4)nc3)cc12)c1nc(C(N)=O)ccc1F (racemic) [Example 23, 6-(1-((3-chloro-6-(2-(3-oxopiperazin-1-yl)pyrimidin-5-yl)quinolin-4-yl)amino)propyl)-5-fluoropicolinamide] | > 6.00 | –
4 | CC(C)(O)c1ncc(-c2cc3c(NC4(c5ccccc5F)CC4)c(Cl)cnc3cc2F)cn1 [Example 278, 2-(5-(3-chloro-7-fluoro-4-((1-(2-fluorophenyl)cyclopropyl)amino)quinolin-6-yl)pyrimidin-2-yl)propan-2-ol] | > 6.00 | –
5 | CC(Nc1c(Cl)cnc2ccc(-c3cnc(C(C)(C)O)nc3)cc12)c1cccc(C(F)(F)F)c1 (racemic) [Example 147, 2-(5-(3-chloro-4-((1-(3-(trifluoromethyl)phenyl)ethyl)amino)quinolin-6-yl)pyrimidin-2-yl)propan-2-ol] | 5.00 to 6.00 | –
6 | CC(Nc1c(Cl)cnc2cc(F)c(-c3cnc(C(C)(C)O)nc3)cc12)c1ccccc1F (stereo not shown) [Example 248, 2-(5-(3-chloro-7-fluoro-4-((1-(2-fluorophenyl)ethyl)amino)quinolin-6-yl)pyrimidin-2-yl)propan-2-ol] | – | 4.60 to 5.00
7 | C[C@@H](Nc1c(Cl)cnc2ccc(-c3cnc(N4CCN(CC(N)=O)CC4)nc3)cc12)c1ccccc1F [Example 90, (R)-2-(4-(5-(3-chloro-4-((1-(2-fluorophenyl)ethyl)amino)quinolin-6-yl)pyrimidin-2-yl)piperazin-1-yl)acetamide] | – | > 6.00
8 | CC(Nc1c(Cl)cnc2ccc(-c3ccc(C(C)(C)O)cc3)cc12)c1ccnn1C (racemic) [Example 195, 2-(4-(3-chloro-4-((1-(1-methyl-1H-pyrazol-5-yl)ethyl)amino)quinolin-6-yl)phenyl)propan-2-ol] | 4.60 to 5.00 | –
9 | CC(=O)NC1CCC(O)(c2ncc(-c3ccc4ncc(Cl)c(N[C@H](C)c5ccccc5F)c4c3)cn2)CC1 (stereo partly drawn) [Example 132, (R)—N-(4-(5-(3-chloro-4-((1-(2-fluorophenyl)ethyl)amino)quinolin-6-yl)pyrimidin-2-yl)-4-hydroxycyclohexyl)acetamide] | 5.00 to 6.00 | –
10 | CC(Nc1c(Cl)cnc2ccc(-c3ccc(C(C)(C)O)cc3)cc12)c1cnn(C)c1 (racemic) [Example 197, 2-(4-(3-chloro-4-((1-(1-methyl-1H-pyrazol-4-yl)ethyl)amino)quinolin-6-yl)phenyl)propan-2-ol] | 4.60 to 5.00 | –
11 | Cc1ccc(C)c(Nc2c(Cl)c(C)nc3ccc(-c4cnc(C(C)(C)O)nc4)cc23)c1 [Example 1, 2-(5-(3-chloro-4-((2,5-dimethylphenyl)amino)-2-methylquinolin-6-yl)pyrimidin-2-yl)propan-2-ol] | – | > 6.00
12 | C[C@@H](Nc1c(Cl)cnc2ccc(-c3ccc(C(N)CO)cc3)cc12)c1ccccc1F (stereo partly drawn) [Example 100, 2-amino-2-(4-(3-chloro-4-(((R)-1-(2-fluorophenyl)ethyl)amino)quinolin-6-yl)phenyl)ethan-1-ol] | 5.00 to 6.00 | –
13 | CC(Nc1c(Cl)cnc2ccc(-c3ccc(C(C)(C)O)cc3)cc12)c1nc(C(N)=O)ccc1F (racemic) [Example 27, 6-(1-((3-chloro-6-(4-(2-hydroxypropan-2-yl)phenyl)quinolin-4-yl)amino)ethyl)-5-fluoropicolinamide] | > 6.00 | –
14 | C[C@@H](Nc1c(Cl)cnc2ccc(-c3cnc(C(C)(C)O)nc3)cc12)c1cccc(N2CCOCC2)c1 [Example 136, (R)-2-(5-(3-chloro-4-((1-(3-morpholinophenyl)ethyl)amino)quinolin-6-yl)pyrimidin-2-yl)propan-2-ol] | > 6.00 | –

Continued, values first:

Row | pIC50 [1] | pIC50 [2] | Structure (SMILES)
15 | > 6.00 | – | C[C@@H](Nc1c(Cl)cnc2ccc(F)cc12)c1cc(-c2cncnc2)ccc1F [Example 544, (R)-3-chloro-6-fluoro-N-(1-(2-fluoro-5-(pyrimidin-5-yl)phenyl)ethyl)quinolin-4-amine]
16 | > 6.00 | – | Cc1nc2cc(F)c(-c3cnc(C(C)(C)O)nc3)cc2c(N[C@H](C)c2cc(C(N)=O)ccc2F)c1Cl [Example 393, (R)-3-(1-((3-chloro-7-fluoro-6-(2-(2-hydroxypropan-2-yl)pyrimidin-5-yl)-2-methylquinolin-4-yl)amino)ethyl)-4-fluorobenzamide]
17 | > 6.00 | – | Cc1nc2c(F)cc(-c3cnc(C(C)(C)O)nc3)cc2c(NC(C)c2ccccc2F)c1Cl (racemic) [Example 298, 2-(5-(3-chloro-8-fluoro-4-((1-(2-fluorophenyl)ethyl)amino)-2-methylquinolin-6-yl)pyrimidin-2-yl)propan-2-ol]
18 | > 6.00 | – | C[C@@H](Nc1c(Cl)cnc2cc(F)c(-c3ccc(N4CCN(CC(=O)O)CC4)cc3)cc12)c1ccccc1F [Example 280, (R)-2-(4-(4-(3-chloro-7-fluoro-4-((1-(2-fluorophenyl)ethyl)amino)quinolin-6-yl)phenyl)piperazin-1-yl)acetic acid]
19 | 5.00 to 6.00 | – | COc1ccc(F)c(CNc2c(Cl)cnc3ccccc23)c1 [Example 517, 3-chloro-N-(2-fluoro-5-methoxybenzyl)quinolin-4-amine]
20 | > 6.00 | – | CC(Nc1c(Cl)cnc2cc(F)c(-c3cnc(N4CCNCC4)nc3)cc12)c1ccccc1F (single isomer, unassigned) [Example 608, 3-chloro-7-fluoro-N-(1-(2-fluorophenyl)ethyl)-6-(2-(piperazin-1-yl)pyrimidin-5-yl)quinolin-4-amine]
21 | > 6.00 | – | C[C@@H](Nc1c(Cl)cnc2ccc(-c3cnc(C(C)(C)O)nc3)cc12)c1cc(C(N)=O)ccc1F [Example 388, (R)-3-(1-((3-chloro-6-(2-(2-hydroxypropan-2-yl)pyrimidin-5-yl)quinolin-4-yl)amino)ethyl)-4-fluorobenzamide]
22 | > 6.00 | – | C[C@@H](Nc1c(Cl)cnc2ccccc12)c1cc(-c2cn[nH]c2)ccc1F [Example 455, (R)-3-chloro-N-(1-(2-fluoro-5-(1H-pyrazol-4-yl)phenyl)ethyl)quinolin-4-amine]
23 | > 6.00 | – | C[C@@H](Nc1c(Cl)cnc2ccc(-c3cnc(C(C)(C)O)nc3)cc12)c1cc(Br)ccc1F [Example 318, (R)-2-(5-(4-((1-(5-bromo-2-fluorophenyl)ethyl)amino)-3-chloroquinolin-6-yl)pyrimidin-2-yl)propan-2-ol]
24 | > 6.00 | – | C[C@@H](Nc1c(Cl)cnc2ccccc12)c1cc(-c2cncnc2)ccc1F [Example 479, (R)-3-chloro-N-(1-(2-fluoro-5-(pyrimidin-5-yl)phenyl)ethyl)quinolin-4-amine]
25 | > 6.00 | – | C[C@@H](Nc1c(Cl)cnc2cc(F)c(-c3cnc(C(C)(C)O)nc3)nc12)c1cc(C(N)=O)ccc1F [Example 583, (R)-3-(1-((3-chloro-7-fluoro-6-(2-(2-hydroxypropan-2-yl)pyrimidin-5-yl)-1,5-naphthyridin-4-yl)amino)ethyl)-4-fluorobenzamide]
